Measurements as given in patent US20260257039A1, “CONVECTION-ENHANCED THERMO-CHEMOTHERAPY CATHETER SYSTEM” (Board of Regents, The University of Texas System, priority 2022, published 2026).

Key:
ex vivo porcine brains = settings: contrast agent infusion, literature; cited from earlier work
excised pig brains = test system: excised pig brains
Procedure: The volume of solution that leaked into the ventricles was segmented into a separate mask (green).
In recent studies (see e.g. FIG. 62A-FIG. 62C) E. Y. Elenes et al., Journal of Engineering and Science in Medical Diagnostics and Therapy, 2020), the arborizing catheter, comprising six infusion ports, was compared to a reflux-preventing single-port catheter. Infusions of iohexol at a flow rate of 1 μL/min/microneedle were performed, using the arborizing catheter on one hemisphere and a single-port catheter on the contralateral hemisphere of excised pig brains. The volume dispersed (Va) of the contrast agent was quantified for each catheter using standard techniques (G. P. Mazzara, et al., International Journal of Radiation Oncology Biology Physics, 2004; and M. F. Dempsey, et al., American Journal of Neuroradiology, 2005).

Question: For `CC(=O)N(CC(O)CO)c1c(I)c(C(=O)NCC(O)CO)c(I)c(C(=O)NCC(O)CO)c1I` (centres unmarked) [iohexol], which “voxels with a concentration between 10 and 15%” value (ex vivo porcine brains) is on record?
Answer: ~40%

Question: What about the “Vd, arborizing catheter relative to single-port catheter” value (excised pig brains) of the same compound?
Answer: approximately 6 times
